Drawing on patent US12528784B2, “Alkynyl-(heteroaryl)-carboxamide HCN1 inhibitors” (Hoffmann-La Roche Inc., priority 2019, dated 2026), this text covers IC50 for 12 compounds.

Where only a bound is given, the exact number is not on record here.

Holding throughout (type): cell-based
One assay addresses T1, HCN2 (Homo sapiens, UniProt Q9UL51).
T1 construct: expressed in transfected cells
T1 sequence (Q9UL51 1-889): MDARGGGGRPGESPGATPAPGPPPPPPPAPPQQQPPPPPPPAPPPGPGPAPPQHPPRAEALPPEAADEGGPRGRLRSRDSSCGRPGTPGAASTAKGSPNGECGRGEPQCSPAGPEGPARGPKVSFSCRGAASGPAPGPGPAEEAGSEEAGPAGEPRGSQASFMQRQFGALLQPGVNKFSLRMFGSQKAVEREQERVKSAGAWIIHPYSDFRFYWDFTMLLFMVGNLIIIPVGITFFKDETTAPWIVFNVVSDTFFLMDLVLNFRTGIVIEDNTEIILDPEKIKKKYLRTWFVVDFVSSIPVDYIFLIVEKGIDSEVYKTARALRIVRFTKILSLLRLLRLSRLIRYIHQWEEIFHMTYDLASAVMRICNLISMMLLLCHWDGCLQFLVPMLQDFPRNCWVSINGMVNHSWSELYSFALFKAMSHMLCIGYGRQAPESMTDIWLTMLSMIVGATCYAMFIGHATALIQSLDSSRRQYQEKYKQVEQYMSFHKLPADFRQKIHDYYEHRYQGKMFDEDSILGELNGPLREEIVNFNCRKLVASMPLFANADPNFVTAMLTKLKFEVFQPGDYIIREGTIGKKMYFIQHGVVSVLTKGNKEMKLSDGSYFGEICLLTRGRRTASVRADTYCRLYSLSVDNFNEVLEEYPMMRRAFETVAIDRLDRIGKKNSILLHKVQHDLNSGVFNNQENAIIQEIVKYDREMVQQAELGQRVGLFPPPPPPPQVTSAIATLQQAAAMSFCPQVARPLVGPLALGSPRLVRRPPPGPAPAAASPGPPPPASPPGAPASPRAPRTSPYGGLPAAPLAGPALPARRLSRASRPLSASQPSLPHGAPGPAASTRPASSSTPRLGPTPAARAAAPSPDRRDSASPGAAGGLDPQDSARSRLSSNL
Nature of the assay: HCN2 automated patch clamp current inhibition assay (Ionworks Barracuda). As to conditions: HEK-293 cells stably expressing HCN2; current inhibition during a hyperpolarizing pulse of -100 mV. Here is the method:
(§1) In vitro, high-throughput cellular electrophysiology was employed to detect voltage- and use-dependence of compounds in single concentration screening and IC50 determination for library and medicinal chemistry profiling compounds in 384 well plates.
(§2) Cell cultures were maintained in DMEM/F12 cell growth media containing FBS and appropriate antibiotics at 37° C., 5% CO2 for a maximum of 20 passages. At a time point of 40-72 hours prior to assay, the expression of HCN protein in the cells is induced by addition of tetracyclin. Cells may be incubated at 27° C. for 2-24 hours of induction. […] Cells were harvested at 80% confluency and resuspended in extracellular buffer and added to wells. A freshly prepared Escin solution was added to intracellular buffer and applied to establish whole cell recording via perforated patch clampling by APC.
(§3) Currents through activated channels were measured directly by APC by employing hyperpolarizing voltage steps. The activation window was increased and stabilized by the addition of cell permeable Br-cAMP. Baselines were established for both use- and voltage-dependence protocols using a −30 mV holding potential and multiple test pulses at −100 mV or by 20 mV steps from −120 to 0 mV, respectively. Test compounds were added after baseline recordings followed by a 10 min incubation, voltage-dependency protocol recording, and use-dependency recording. Data was corrected for baseline and rundown (well based) and normalized for % inhibition (plate based). Five previously reported HCN inhibitors of varying potencies and selectivities and zatebradine were used for run to run and plate to plate quality controls. […] Percent inhibition was analysed at −80, −100, −120 mV of the voltage-dependency protocol and at pulse 0 and 50 of the use-dependency protocols. Selectivity was assessed against HCN2, HCN3, and HCN4 overexpressing cell lines using similar methods. As HCN4 has a slower activation than the other HCN channels, activation was extended to achieve steady state activation.
(In general: In patch-clamp work, channel activity is measured electrically.)

Another assay deals with T2, HCN1 (Homo sapiens, UniProt O60741).
T2 construct: expressed in transfected cells
T2 sequence (O60741 1-890): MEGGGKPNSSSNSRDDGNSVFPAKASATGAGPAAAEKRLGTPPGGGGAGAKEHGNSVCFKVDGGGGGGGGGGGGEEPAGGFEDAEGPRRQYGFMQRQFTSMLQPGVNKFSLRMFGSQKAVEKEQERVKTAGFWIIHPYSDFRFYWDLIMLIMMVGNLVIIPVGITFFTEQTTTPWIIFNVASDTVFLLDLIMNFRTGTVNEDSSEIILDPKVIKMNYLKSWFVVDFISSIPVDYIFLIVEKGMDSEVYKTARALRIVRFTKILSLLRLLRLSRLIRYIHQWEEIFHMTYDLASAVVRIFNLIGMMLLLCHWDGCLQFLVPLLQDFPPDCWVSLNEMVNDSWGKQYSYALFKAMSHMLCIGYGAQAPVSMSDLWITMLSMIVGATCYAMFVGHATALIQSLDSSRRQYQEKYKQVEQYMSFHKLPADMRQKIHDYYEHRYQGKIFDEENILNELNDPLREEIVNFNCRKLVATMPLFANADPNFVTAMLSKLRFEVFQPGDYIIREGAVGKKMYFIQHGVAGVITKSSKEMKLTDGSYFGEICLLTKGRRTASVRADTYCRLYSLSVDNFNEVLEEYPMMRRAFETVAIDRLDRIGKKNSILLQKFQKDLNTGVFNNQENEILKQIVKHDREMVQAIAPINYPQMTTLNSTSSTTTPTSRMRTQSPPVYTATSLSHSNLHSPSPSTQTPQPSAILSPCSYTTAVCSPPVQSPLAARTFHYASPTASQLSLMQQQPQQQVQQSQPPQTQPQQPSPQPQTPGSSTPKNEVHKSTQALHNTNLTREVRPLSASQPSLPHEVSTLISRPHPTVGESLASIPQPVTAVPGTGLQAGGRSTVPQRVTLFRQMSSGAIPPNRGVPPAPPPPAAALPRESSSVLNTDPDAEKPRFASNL
Nature of the assay: HCN1 automated patch clamp current inhibition assay (Ionworks Barracuda). To be noted: HEK-293 cells stably expressing HCN1; current inhibition during a hyperpolarizing pulse of -100 mV. Here is the method:
as §1, §2, §3

Another assay concerns the target T3, HCN4 (Homo sapiens, UniProt Q9Y3Q4).
T3 construct: expressed in transfected cells
T3 sequence (Q9Y3Q4 1-1203): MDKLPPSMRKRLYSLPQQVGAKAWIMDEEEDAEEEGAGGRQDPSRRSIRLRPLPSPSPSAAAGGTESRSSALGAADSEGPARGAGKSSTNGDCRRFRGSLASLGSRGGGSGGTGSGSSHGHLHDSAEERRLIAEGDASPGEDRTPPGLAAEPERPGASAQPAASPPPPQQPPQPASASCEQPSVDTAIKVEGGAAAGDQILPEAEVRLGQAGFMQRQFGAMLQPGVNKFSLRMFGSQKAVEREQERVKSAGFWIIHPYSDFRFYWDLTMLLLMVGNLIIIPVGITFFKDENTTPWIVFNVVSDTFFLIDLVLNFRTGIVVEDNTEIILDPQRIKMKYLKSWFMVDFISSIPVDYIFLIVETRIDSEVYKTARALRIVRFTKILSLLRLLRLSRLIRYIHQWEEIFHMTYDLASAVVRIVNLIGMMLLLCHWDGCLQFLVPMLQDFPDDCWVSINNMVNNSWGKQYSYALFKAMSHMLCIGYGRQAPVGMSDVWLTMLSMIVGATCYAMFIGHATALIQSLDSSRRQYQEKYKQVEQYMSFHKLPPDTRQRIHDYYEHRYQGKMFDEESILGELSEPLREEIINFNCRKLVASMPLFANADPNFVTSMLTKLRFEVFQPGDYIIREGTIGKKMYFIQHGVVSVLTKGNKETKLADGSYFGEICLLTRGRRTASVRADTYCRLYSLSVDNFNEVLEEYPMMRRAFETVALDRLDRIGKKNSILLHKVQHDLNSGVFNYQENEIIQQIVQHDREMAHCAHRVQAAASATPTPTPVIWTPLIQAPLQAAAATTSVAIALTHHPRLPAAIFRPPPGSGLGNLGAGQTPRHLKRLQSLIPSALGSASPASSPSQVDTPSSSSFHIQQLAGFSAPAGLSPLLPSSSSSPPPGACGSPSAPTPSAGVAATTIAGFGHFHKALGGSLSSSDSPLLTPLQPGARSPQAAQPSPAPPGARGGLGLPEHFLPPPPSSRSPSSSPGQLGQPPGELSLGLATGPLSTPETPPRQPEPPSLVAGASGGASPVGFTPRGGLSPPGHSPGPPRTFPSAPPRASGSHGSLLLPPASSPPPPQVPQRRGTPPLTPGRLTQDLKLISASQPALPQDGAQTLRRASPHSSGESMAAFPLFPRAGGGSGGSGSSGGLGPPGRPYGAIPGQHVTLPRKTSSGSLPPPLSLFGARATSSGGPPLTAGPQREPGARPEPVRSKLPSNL
The experiment in a line: HCN4 automated patch clamp current inhibition assay (Ionworks Barracuda). As to conditions: HEK-293 cells stably expressing HCN4; current inhibition during a hyperpolarizing pulse of -100 mV. Here is the method:
as §1, §2, §3

The IC50 is the concentration at which inhibition is half-maximal. The low end stands for inhibition by little substance, the high end for a need for much substance. With `Cc1ccc(-n2c(C(N)=O)nc(C#Cc3cc(Cl)ncc3F)c2C)cn1` [Example 7, 4-((2-Chloro-5-fluoropyridin-4-yl)ethynyl)-5-methyl-1-(6-methylpyridin-3-yl)-1H-imidazole-2-carboxamide], the 50% inhibitory concentration (IC50) against HCN2 is greater than 40 µM; on HCN1, 0.297 µM; at HCN4 it was greater than 40 µM.

With `Cc1ccc(-n2c(C(N)=O)nc(C#Cc3ccc(Cl)cc3)c2C)cn1` [Example 9, 4-[2-(4-Chlorophenyl)ethynyl]-5-methyl-1-(6-methyl-3-pyridyl)imidazole-2-carboxamide], the IC50 at HCN2 was greater than 40 µM; against HCN1, 0.518 µM; against HCN4 it was greater than 40 µM.

Take `Cc1ccc(-n2c(C(N)=O)nc(C#Cc3ccnc(C(F)(F)F)c3)c2C)cn1` [Example 11, 5-Methyl-1-(6-methylpyridin-3-yl)-4-((2-(trifluoromethyl)pyridin-4-yl)ethynyl)-1H-imidazole-2-carboxamide]: the IC50 against HCN2 was greater than 40 µM; at HCN1, 0.833 µM; against HCN4, greater than 40 µM.

On to `Cc1ccc(-n2c(C(N)=O)nc(C#Cc3ccnc(F)c3)c2C)cn1` [Example 12, 4-[2-(2-Fluoro-4-pyridyl)ethynyl]-5-methyl-1-(6-methyl-3-pyridyl)imidazole-2-carboxamide], for which the IC50 at HCN2 is greater than 40 µM; against HCN1, 1.01 µM; against HCN4, greater than 40 µM.

In the case of `Cc1ccc(-n2c(C(N)=O)nc(C#Cc3ccnc(Cl)n3)c2C)cn1` [Example 15, 4-((2-Chloropyrimidin-4-yl)ethynyl)-5-methyl-1-(6-methylpyridin-3-yl)-1H-imidazole-2-carboxamide], the IC50 was greater than 40 µM on HCN2, 2.39 µM on HCN1 and greater than 40 µM at HCN4.

For the compound `Cc1ccc(-n2c(C(N)=O)nc(C#Cc3ccncc3F)c2C)cn1` [Example 16, 4-((3-Fluoropyridin-4-yl)ethynyl)-5-methyl-1-(6-methylpyridin-3-yl)-1H-imidazole-2-carboxamide], the IC50 at HCN2 was greater than 40 µM; against HCN1, 2.4 µM; on HCN4, greater than 40 µM.

For the compound `Cc1ccc(-n2c(C(N)=O)nc(C#Cc3cncc(Cl)c3)c2C)cn1` [Example 17, 4-[2-(5-Chloro-3-pyridyl)ethynyl]-5-methyl-1-(6-methyl-3-pyridyl)imidazole-2-carboxamide], the IC50 is greater than 40 µM at HCN2, 3.02 µM on HCN1 and greater than 40 µM against HCN4.

For the compound `Cc1ccc(-n2c(C(N)=O)nc(C#Cc3cc(Cl)ncn3)c2C)cn1` [Example 19, 4-((6-Chloropyrimidin-4-yl)ethynyl)-5-methyl-1-(6-methylpyridin-3-yl)-1H-imidazole-2-carboxamide], the values for the IC50 against HCN1 and against HCN4 were 6.47 µM and greater than 40 µM, respectively.

For `Cc1ccc(-n2c(C(N)=O)nc(C#Cc3cccnc3)c2C)cn1` [Example 20, 5-Methyl-1-(6-methyl-3-pyridyl)-4-[2-(3-pyridyl)ethynyl]imidazole-2-carboxamide], the figures for the IC50 at HCN2, on HCN1 and on HCN4 were greater than 40 µM, 8.59 µM and greater than 40 µM, respectively.

As to `Cc1ccc(-n2c(C(N)=O)nc(C#Cc3ccnc(C)c3)c2C)cn1` [Example 22, 5-Methyl-1-(6-methylpyridin-3-yl)-4-((2-methylpyridin-4-yl)ethynyl)-1H-imidazole-2-carboxamide], the half-maximal inhibitory concentration (IC50) on HCN2 was greater than 40 µM; on HCN1, 6.03 µM; on HCN4, greater than 40 µM.

For `Cc1ccc(-n2c(C(N)=O)nc(C#Cc3ccnc(Cl)c3C)c2C)nn1` [Example 24, 4-[2-(2-Chloro-3-methyl-4-pyridyl)ethynyl]-5-methyl-1-(6-methylpyridazin-3-yl)imidazole-2-carboxamide], the IC50 is greater than 40 µM on HCN2, 0.15 µM on HCN1 and greater than 40 µM at HCN4.

Take `Cc1c(Cl)cccc1C#Cc1nc(C(N)=O)n(-c2cccnc2)c1C` [Example 30, 4-[2-(3-Chloro-2-methyl-phenyl)ethynyl]-5-methyl-1-(3-pyridyl)imidazole-2-carboxamide]: the IC50 on HCN1 is 0.087 µM; against HCN4, greater than 40 µM.
